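How tested: cells in 96-well plates exposed to compound for 48 hours at five concentrations. At the GI50, growth is halved. The concentration for full growth arrest is given as TGI.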
Assays:
Experiment in all cases: inhibition of tumour cell growth, NCI panel, 48 h
[1] = tested on: SF-539 CNS
[2] = tested on: HCT-116 colon
[3] = tested on: UACC-257 melanoma
[4] = tested on: HL-60(TB) leukemia
[5] = tested on: MCF7 breast
[6] = tested on: SNB-75 CNS
[7] = tested on: A498 renal
[8] = tested on: OVCAR-4 ovarian
[9] = tested on: RPMI-8226 leukemia
[10] = tested on: RXF 393 renal

What does the source list for `COCCNc1cc(NC(=O)N2CCCc3cc(CN4CCN(C)CC4=O)c(C=O)nc32)ncc1C#N`?
GI50 [1]: > 50000 nM; TGI [1]: > 50 µM; GI50 [2]: 25.6 µM; TGI [2]: > 50 µM; GI50 [3]: > 50 µM; TGI [3]: > 50 µM; GI50 [4]: > 50 µM; TGI [4]: > 50 µM; GI50 [5]: 40.4 µM; TGI [5]: > 50 µM; GI50 [6]: 16 µM; TGI [6]: > 50 µM; GI50 [7]: > 50 µM; TGI [7]: > 50 µM; GI50 [8]: > 50 µM; TGI [8]: > 50 µM; GI50 [9]: 42.4 µM; TGI [9]: > 50 µM

How did the TGI [1] turn out when `C=CC1C(OC2OC(CO)C(O)C(O)C2O)OC=C(C(=O)OC)C1CC=O` (stereo not given) was run?
Its TGI is greater than 100 µM.

And the TGI [10]?
Its TGI is greater than 100 µM.

What about the TGI [4] of the same molecule?
The TGI was greater than 100 µM.

And the TGI [6]?
The TGI was greater than 100 µM.

What about the TGI [7] of the same molecule?
Its TGI is greater than 100 µM.

What about the TGI [8] of the same molecule?
The TGI was greater than 100 µM.

And the TGI [9]?
The TGI was greater than 100 µM.

Which results are given for `Cc1cn2c(/C=N/Nc3ccccn3)c(-c3ccc(Cl)c([N+](=O)[O-])c3)nc2s1`?
GI50 [1]: 1120 nM; TGI [1]: 3.53 µM; GI50 [2]: 8.56 µM; TGI [2]: 18.4 µM; GI50 [3]: 21.3 µM; TGI [3]: > 50 µM; GI50 [4]: > 50 µM; TGI [4]: > 50 µM; GI50 [5]: 3.27 µM; TGI [5]: > 50 µM; GI50 [9]: 30.2 µM; TGI [9]: > 50 µM

What does the source list for `CCC1CCc2c(OC)ccc(OCC(=O)O)c2C1=O` (stereo not given)?
TGI [1]: > 100 µM; TGI [10]: > 100 µM; TGI [3]: > 100 µM; TGI [4]: > 100 µM; TGI [6]: > 100 µM; TGI [8]: > 100 µM; TGI [9]: > 100 µM

What does the source list for `CCN(CC)CC(C(=O)Nc1c(C)cccc1C)/C(C)=N\NC(=O)c1ccncc1` (stereo not given)?
TGI [1]: > 100 µM; TGI [2]: > 100 µM; TGI [10]: > 100 µM; TGI [3]: > 100 µM; TGI [6]: > 100 µM; TGI [7]: > 100 µM; TGI [8]: > 100 µM

With `C/C=C/C=C/CCCCCCCCCCCCCC1(OC)C=CC(CC(=O)OC)OO1` (stereo not given) as the molecule, how does the TGI [1] read?
Its TGI is 28.6 µM.

What about the TGI [2] of the same molecule?
The TGI was 21.7 µM.

What about the GI50 [10] of the same molecule?
Its GI50 is 4.24 µM.

And the TGI [10]?
The TGI was 15.3 µM.

What about the TGI [3] of the same molecule?
The TGI was 35.4 µM.

What about the TGI [4] of the same molecule?
Its TGI is 18.4 µM.

What about the TGI [6] of the same molecule?
The TGI was 22.4 µM.

And the GI50 [8]?
Its GI50 is 1.15 µM.

And the TGI [8]?
The TGI was 2.48 µM.

And the TGI [9]?
The TGI was 46 µM.

`CC(C)C[C@H](NC(=O)[C@@H](O)[C@H](N)Cc1ccc([N+](=O)[O-])cc1)C(=O)O` was tested. Which GI50 [1] did it give?
Its GI50 is greater than 25000 nM.

What about the TGI [1] of the same molecule?
Its TGI is greater than 25 µM.

And the GI50 [2]?
Its GI50 is greater than 25 µM.

And the TGI [2]?
Its TGI is greater than 25 µM.

What about the GI50 [10] of the same molecule?
Its GI50 is 19.2 µM.

And the TGI [10]?
The TGI was greater than 25 µM.

And the GI50 [3]?
The GI50 was greater than 25 µM.

And the TGI [3]?
Its TGI is greater than 25 µM.

And the GI50 [5]?
Its GI50 is greater than 25 µM.

What about the TGI [5] of the same molecule?
The TGI was greater than 25 µM.

And the GI50 [6]?
Its GI50 is greater than 25 µM.

What about the TGI [6] of the same molecule?
The TGI was greater than 25 µM.

What about the GI50 [8] of the same molecule?
The GI50 was greater than 25 µM.

What about the TGI [8] of the same molecule?
The TGI was greater than 25 µM.

For `Cc1c(Cl)cccc1NC1=C(Cl)C(=O)N(Cc2ccccc2)C1=O`, which GI50 [2] is on record?
Its GI50 is 10.4 µM.

And the TGI [2]?
The TGI was 22.1 µM.

What about the GI50 [10] of the same molecule?
The GI50 was 12 µM.

And the TGI [10]?
The TGI was 32.7 µM.

What about the GI50 [5] of the same molecule?
Its GI50 is 25.3 µM.

And the TGI [5]?
The TGI was 59 µM.

What about the GI50 [7] of the same molecule?
The GI50 was 11.7 µM.

And the TGI [7]?
Its TGI is 24.8 µM.

And the GI50 [8]?
The GI50 was 15.5 µM.

What about the TGI [8] of the same molecule?
The TGI was 34 µM.

What about the GI50 [9] of the same molecule?
Its GI50 is 1.25 µM.

What about the TGI [9] of the same molecule?
The TGI was 26.7 µM.

What does the source list for `COc1cc(C2C3=C(COC3=O)Nc3cc4c(cc32)CCC4)cc2c1OCO2` (stereo not given)?
GI50 [1]: 32.8 nM; TGI [1]: 8.73 µM; GI50 [2]: 0.0428 µM; TGI [2]: 1.31 µM; GI50 [3]: 1.13 µM; TGI [3]: 63.3 µM; GI50 [4]: 0.033 µM; TGI [4]: 0.724 µM; GI50 [5]: 0.0349 µM; TGI [5]: 13.3 µM; GI50 [6]: 0.0259 µM; TGI [6]: 18.8 µM; GI50 [7]: 0.025 µM; TGI [7]: 0.0964 µM; GI50 [8]: 0.0717 µM; TGI [8]: 19.8 µM; GI50 [9]: 0.0531 µM; TGI [9]: > 49.2 µM

Reference: PubChem BioAssay (NCI)
